Measured values from patent publication US6723702B2, “Use of relaxin treat diseases related to vasoconstriction” (RAS Medical, Inc., priority 2000, dated 2004).

Tests used:
[1] = system: THP-1 cells; test: THP-1 cells: morphology, 3H-thymidine uptake, metalloproteinase expression; type: cell-based, human
[2] = system: small mesenteric arteries; test: Myogenic reactivity of small mesenteric arteries; type: in vivo, rat; details: female rats chronically administered rhRLX (FIG. 15)
[3] = system: human cardiac cells; test: VEGF protein secreted by human cardiac cells; type: cell-based; details: 100 ng/ml, 24 hr
Method: Consistent with RT-PCR data, relaxin stimulated a small but significant dose-related increase in levels of VEGF protein secreted by human cardiac. Cells were seeded in 35 mm wells at 2.5×10^5 cells per well 24 hours prior to treatment with relaxin. Cells were washed twice with SmBM (no supplements) and incubated for 2 hr with SmBM treatment medium (containing 400 pg/ml bFGF, gentamycin, amphoteracin B, and 2% fetal calf serum) at 37° C., 5% CO2. The medium was then replaced with SmBM treatment medium without relaxin or with concentrations of relaxin from 0.1 ng/ml to 100 ng/ml. Cells were then incubated for 24 hr (37° C., 5% CO2).

[4] = system: THP-1 cells; test: THP-1 cells: VEGF and bFGF mRNA induction; type: cell-based, human; details: 100 ng/ml for 3 hours (FIG. 9)
Method: Sense and anti-sense primers for use with the real time RT-PCR, ABI Prism 7700 Sequence Detection System were designed using the PrimerExpress version 1.0 software (PE Applied Biosystems, Inc.). Rat and human specific primer/probe sets included those for GAPDH, bFGF, the VEGF 164 aa or 120 aa rat isoforms, and their respective human homologues (VEGF 165 and VEGF 121). ABI PRISM specific primer/probes were purchased from BioSource International Inc. or PE Applied Biosystems.
RT-PCR was performed on 150 ng for the analysis of VEGF and bFGF mRNA expression. Ten nanograms of total RNA was used for GAPDH niRNA expression. […] Data were analyzed using Sequence Detector v1.6.3 software (Applied Biosystems/PE). […]
Because macrophages are the inflammatory cells predominantly responsible for the angiogenic response that occurs during healing, a monocyte/macrophage cell line shown previously to bind relaxin with high affinity (THP-1) (Parsell et al. (1996) J. Biol. Chem. 271:27936-27941) was tested for relaxin inducibility of VEGF and bFGF. […] In order to determine whether the increase in VEGF mRNA observed following short-term relaxin treatment was reflected by an elevation in secreted VEGF protein, THP-1 cells were treated with relaxin (0.01-100 ng/ml) for 24 h, the conditioned media collected, and VEGF content in the media quantified by ELISA. […]

[5] = system: conscious male rats; test: 5-day rhRLX infusion in conscious male rats: MAP, renal function, hematocrit, plasma osmolality, sodium; type: in vivo, rat
Method: After being placed in the experimental cage, a 100 μl blood sample was drawn from the arterial catheter into a heparinized tube for measurement of baseline plasma osmolality, sodium concentration and hematocrit prior to the administration of any fluids. […] Next, a bolus of inulin (IN, 0.2 ml of a 20% stock solution/100 g BW) and para-aminohippurate (PAH, 0.1 ml of a 2% working solution/100 g BW) was given over 1 minute into the venous catheter followed by a constant infusion of the two reagents at a rate of 0.5 mg/minute per 100 g BW and 0.1 mg/minute per 100 g BW, respectively. The flow rate was 19 μl/minute delivered by a Model 200 Syringe Pump (kd Scientific, Boston Mass.). Finally, the obturator in the bladder catheter was removed, and the latter was extended with a short piece of polyethylene tubing to facilitate the collection of urine.
The technique of urine collection has proven to be reliable. Conrad and Colpoys (1986) J. Clin. Invest. 77:236-245; Danielson and Conrad (1995) J. Clin. Invest. 96:482-490; and Danielson and Conrad (1996) Circ. Res. 79:1161-1166. Indeed, after reaching steady-state in this study, the excretion rates of IN and PAH were 91±3 and 100±4% of their respective infusions. After measuring baseline mean arterial pressure and renal function, an osmotic minipump (model 2ML1, Alza Co., Palo Alto Calif.) containing either recombinant human relaxin (rhRLX; n=12 rats) or vehicle (n=7) was implanted subcutaneously on the back using light ether anesthesia. […] Five days later, mean arterial pressure (MAP), glomerular filtration rate (GFR), effective renal plasma flow (ERPF), and other parameters were again assessed as describe above. At this time, the excretion rates of IN and PAH were 91±3 and 98±2% of their respective infusion rates. At the end of the experiment, 1.0 ml of blood was collected for determination of serum rhRLX.
Inulin concentration in plasma and urine was measured by the anthrone method, and PAH was determined by the method of Bratton and Marshall as modified by Smith. This method is described in Conrad (1984) Kidney Int. 26:24-29, and references cited therein. Plasma sodium was measured by a Kodak Ektachem Instrument (Rochester, N.Y.). Plasma osmolality was determined by freezing point depression (Advanced Osmometer, Model 3MO, Advanced Instruments, Needham Heights Mass.). All urine and plasma samples from MWRI were coded and sent to UNM for analysis of IN, PAH, sodium and osmolality (by L.A.D.). The rhRLX in serum was measured using a quantitative sandwich immunoassay, again in a blinded fashion. Danielson et al. (1999) J. Clin. Invest. 103:525-533.

**Q.** Which results are given for “rhRLX: recombinant human relaxin, identical in amino acid sequence to the product of the human H2 gene; A chain of 24, B chain of 29 amino acids”?
**A.** morphological changes, such as adherence to plastic or aggregation [1]: no observable morphological changes; myogenic reactivity [2]: reduced myogenic reactivity; VEGF secretion, maximum induction over control levels [3]: 155%; Transcripts for VEGF [4]: specifically upregulated; effect on ERPF ([5]; 4 μg/hour for 5 days (FIG. 3)): significantly increased; effect on ERVR ([5]; 4 μg/hour for 5 days (FIG. 3)): reducing; effect on GFR ([5]; 4 μg/hour for 5 days (FIG. 3)): significantly increased; effect on MAP ([5]; 4 μg/hour for 5 days (FIG. 3)): did not significantly affect; HCT (hematocrit), change from the baseline ([5]; rhRLX 4 μg/hour for 5 days): −5.0 ± 0.6 %; PNa+ (plasma sodium concentration), change from the baseline ([5]; rhRLX 4 μg/hour for 5 days): −5.3 ± 0.4 mEq/L; Posm (plasma osmolality), change from the baseline ([5]; rhRLX 4 μg/hour for 5 days): −10.9 ± 1.4 mOsm/kg H2O
